# Results reported in US10918734B2 (Immunomedics, Inc., priority 2017, dated 2021).
# Read-outs that look alike come from different tables or passages of the source.
# Tests used:
# p53 = p53 expression in tumor cells; format: cell-based, human; conditions: BxPC-3 and Calu-3
# From the text: (§1) SN-38 is known to activate several signaling pathways in cells, leading to apoptosis (e.g., Cusack et al., 2001, Cancer Res 61:3535-40; Liu et al. 2009, Cancer Lett 274:47-53; Lagadec et al., 2008, Br J Cancer 98:335-44). Our initial studies examined the expression of 2 proteins involved in early signaling events (p21^Waf1/Cip1 and p53) and 1 late apoptotic event [cleavage of poly-ADP-ribose polymerase (PARP)] in vitro (not shown).
# (§2) In addition, p53 expression in cells exposed to the ADC was higher in both cell lines compared to SN-38 (not shown). […] In terms of later apoptotic events, cleavage of PARP was evident in both cell lines when incubated with either SN-38 or the conjugate (not shown). […] The higher degree of cleavage with free SN-38 over the ADC was consistent with the cytotoxicity findings.
# [1] = system: poly-ADP-ribose polymerase (PARP); test: Cleavage of PARP in tumor cells; format: cell-based, human; conditions: BxPC-3 and Calu-3
# From the text: as §1, §2
# [2] = system: human SCLC tumors (DMS 53); format: in vivo, C.B.-17 SCID mice
# Experimental: Female C.B.-17 SCID mice were injected s.c. with a tumor suspension made from of DMS 53 stock tumors (20% w/v) plus cells harvested from tissue culture (5×10^6 cells per mouse) mixed 1:1 with matrigel. […] All were administered twice weekly for 4 weeks. Two groups received only chemotherapy of either cisplatinum (5 mg/kg i.p.) or carboplatin (50 mg/kg i.p.) weekly for 4 weeks. […] A final untreated control group of mice received saline (100 μL i.p. twice weekly×4 wks). Tumors were measured and mice weighed twice weekly.
# [3] = system: SK-MES-1 human squamous cell lung tumors; test: SK-MES-1 xenograft therapy; design: species or system nude mice; conditions: mouse, in vivo
# MDA-MB-231 tumors = test: MDA-MB-231 parental tumor therapy; format: in vivo, mice
# Experimental: (§3) Rad51 and DNA-breaks (g-H2A.X) were determined by Western blot. […] Tumors were measured and mice weighed twice weekly. Study survival endpoint was tumor progression to >1.0 cm^3.
# C13 tumors = test: MDA-MB-231 Trop-2 transfectant C13 tumor therapy; format: in vivo, mice; conditions: for median survival time (MST): IMMU-132 0.5 mg twice wkly × 4, irinotecan 40 mg/kg q2dx5
# Experimental: as §3
# C39 tumors = test: MDA-MB-231 Trop-2 transfectant C39 tumor therapy; format: in vivo, mice; conditions: for median survival time (MST): IMMU-132 0.5 mg twice wkly × 4, irinotecan 40 mg/kg q2dx5
# Experimental: as §3
# [4] = system: SK-MES-1 squamous cell lung carcinoma; test: SK-MES-1 antitumor effect (FIG. 18); format: in vivo
# Rad51 [5] = test: Rad51 expression in tumors taken from treated mice; format: in vivo; conditions: parental, C13 and C39 tumors
# [6] = plasma esterase; cited from earlier work
# advanced GI cancers = test: Phase I/II trial of IMMU-132 in advanced GI cancers: best response by RECIST, TTP; format: in vivo, human
# Experimental: Patients with metastatic cancers were enrolled after failing standard therapy, starting at a dose of 8.0 mg/kg given on days 1 and 8 of a 3-week cycle.
# Sixty patients with advanced GI cancers were enrolled in a Phase I/II trial.
# [7] = system: diverse metastatic cancers; test: Phase I/II clinical trial of IMMU-132 (Example 8): response and TTP; format: in vivo, human
# Rad51 [8] = test: Rad51 levels by Western blot in cells exposed to IMMU-132; format: cell-based, human; conditions: for increase in Rad51 level: MDA-MB-231, 24-h exposure
# Experimental: as §3
# HCC1806 TNBC = HCC1806 TNBC antitumor effect (FIG. 17); format: in vivo
# [9] = human, in vivo
# Capan-1 tumors = test: Capan-1 xenograft therapy; format: in vivo, nude mice; conditions: day 140; 0.2 mg/kg SN-38 twice weekly x 4 weeks
# p21^Waf1/Cip1 = test: p21Waf1/Cip1 expression in tumor cells; format: cell-based, human
# From the text: as §1
# Calu-3 tumors = test: Calu-3 xenograft therapy; format: in vivo, nude mice; conditions: 0.4 mg/kg SN-38; tumor-free until day 147
# [10] = Tolerability in Cynomolgus monkeys; format: in vivo, Cynomolgus monkeys (Macaca fascicularis)
# [11] = system: BxPC3 human pancreatic carcinoma; conditions: FIG. 2
# [12] = mouse, in vivo
# [13] = human, in vivo; remark: listed apart in the source
# [14] = Tolerability in Swiss-Webster mice; conditions: normal mice; 1,500 mg/kg of the conjugate
# [15] = day 73, IMMU-132 250 μg (alone twice weekly, in combination weekly)
molecule,measurement,setting,value
"CCc1c2c(nc3ccc(O)cc13)-c1cc3c(c(=O)n1C2)COC(=O)[C@]3(O)CC [SN-38, reference compound]",exposure time at which upregulation of p53 was evident,p53,48 h
same,cleavage of PARP,[1],evident
"N.N.O=C([O-])C1(C(=O)[O-])CCC1.[Pt+2] [carboplatin, reference compound]",mean tumor volume,[2]; day 41 (therapy day 14),0.602±0.224 cm^3
"N.N.[Cl][Pt][Cl] [cisplatinum, reference compound]",mean tumor volume,[2]; [15],0.758±0.240 cm^3
"CCc1c2c(nc3ccc(OC(=O)N4CCC(N5CCCCC5)CC4)cc13)-c1cc3c(c(=O)n1C2)COC(=O)[C@]3(O)CC [irinotecan, reference compound]",antitumor effect vs specific hRS7-SN-38 conjugate,[3],provided the same antitumor effects
same,median survival time,MDA-MB-231 tumors; 40 mg/kg q2dx5,26.5 days
same,median survival time,C13 tumors; 40 mg/kg q2dx5,35 days
same,median survival time (MST),C13 tumors,35 days
same,median survival time (MST),C39 tumors,28 days
same,antitumor effects,[4],significant antitumor effects
same,Rad51 in tumors from treated mice,Rad51 [5],up-regulation of Rad51 within 24 h
same,conversion rate to SN-38,[6],greater than 50%
IMMU-132,gastric cancer patients with SD,advanced GI cancers; 3 with CT assessment,3
same,esophageal cancer patients with PR,advanced GI cancers; 8 with CT assessment,1
same,esophageal cancer patients with SD,advanced GI cancers; 8 with CT assessment,4
same,pancreatic cancer patients with SD as best response,"advanced GI cancers; 15 treated (5 at 8, 7 at 10, 3 at 12 mg/kg)",7
same,CRC patients with SD as best response by RECIST,advanced GI cancers; 29 CRC patients,14
same,CRC patients with PR as best response by RECIST,"advanced GI cancers; 29 CRC patients (9 at 10 mg/kg, 20 at 8 mg/kg)",1
same,extent of the PR,advanced GI cancers; CRC,~65%
same,CT-assessable PDC patients with SD,[7]; 8 of 13,62%
same,patients with disease response,[7]; 48 patients (excluding PDC),79%
same,antitumor effect compared to saline control,"[2]; 500, 250 or 100 μg i.p. twice weekly for 4 weeks",significant antitumor effect
same,mean tumor volume,[2]; [15],0.745±0.162 cm^3
same,Rad51 up-regulation above untreated background,"Rad51 [8]; C13 and C39, 24 h",~2.5 fold
same,increase in Rad51 level,Rad51 [8]; 25 nM SN-38-equivalents,greater than 2 fold
same,increase in Rad51 level,Rad51 [8]; 100 nM,4 fold
same,increase in Rad51 levels,"Rad51 [8]; MDA-MB-231 cells, 24 h",> 2 fold
same,change in Rad51,"Rad51 [8]; SK-MES-1, HCC1806",Neither SK-MES-1 nor HCC1806 cells demonstrated any increases in Rad51
same,effect on Rad51 levels,Rad51 [8]; SK-MES-1 or HCC1806,no effect
same,median survival time (MST),"MDA-MB-231 tumors; 0.5 mg twice wkly × 4, endpoint tumor >1.0 cm^3",21 days
same,effect on tumor growth,MDA-MB-231 tumors; FIG. 19,no effect on tumor growth
same,effect on survival,MDA-MB-231 tumors; FIG. 22,no antitumor effect on survival
same,efficacy,"MDA-MB-231 tumors; past studies, FIG. 16",neither IMMU-132 nor irinotecan demonstrated any efficacy
same,effect on tumor growth,C13 tumors; FIG. 20,effective to inhibit tumor growth
same,median survival time (MST),C13 tumors,> 70 days
same,effect on tumor growth,C39 tumors; FIG. 21,effective to inhibit tumor growth
same,median survival time (MST),C39 tumors,> 70 days
same,antitumor effects,HCC1806 TNBC,significant antitumor effects
same,antitumor effects,[4],significant antitumor effects
same,Rad51 in tumors from treated mice,Rad51 [5],up-regulation of Rad51 within 24 h
same,"Abdominal pain, Grade 3",[9],0
same,"Abdominal pain, Grade 4",[9],0
same,"Anemia, Grade 3",[9],2 (4%)
same,"Anemia, Grade 4",[9],0
same,"Deep vein thrombosis, Grade 3",[9],1 (2%)
same,"Deep vein thrombosis, Grade 4",[9],0
same,"Diarrhea, Grade 3",[9],4 (9%)
same,"Diarrhea, Grade 4",[9],0
same,"Dysgeusia, Grade 3",[9],0
same,"Dysgeusia, Grade 4",[9],0
same,"Fatigue, Grade 3",[9],4 (9%)
same,"Fatigue, Grade 4",[9],0
same,"Hypokalemia, Grade 3",[9],1 (2%)
same,"Hypokalemia, Grade 4",[9],0
same,"Nausea, Grade 3",[9],0
same,"Nausea, Grade 4",[9],0
same,"Neutropenia, Grade 3",[9],11 (24%)
same,"Neutropenia, Grade 4",[9],2 (4%)
same,"Pyrexia, Grade 3",[9],0
same,"Pyrexia, Grade 4",[9],0
same,"Vomiting, Grade 3",[9],1 (2%)
same,"Vomiting, Grade 4",[9],0
same,"WBC Decrease, Grade 3",[9],1 (2%)
same,"WBC Decrease, Grade 4",[9],0
same,neutropenia ≥G3,[9],28%
hA20-CL2A-SN-38 [reference compound],mice tumor-free at end of study,Capan-1 tumors,20%
same,antitumor effect vs specific hRS7-SN-38 conjugate,[3],provided the same antitumor effects
hRS7 IgG,effect on p21Waf1/Cip1 expression,p21^Waf1/Cip1,no appreciable effect
same,exposure time at which upregulation of p53 was evident,p53,48 h
hRS7-CL2-SN-38,mice tumor-free at end of study,Capan-1 tumors,40%
same,time within which all mice were cured,Calu-3 tumors,≤ 28 days
hRS7-CL2A-SN-38,mice tumor-free at end of study,Capan-1 tumors,50%
same,increase in p21Waf1/Cip1 expression over free SN-38,p21^Waf1/Cip1; Calu-3,more than 2 fold
same,exposure time at which upregulation of p53 was evident,p53,≤ 24 h
same,cleavage of PARP,[1],evident
same,blood count data,"[10]; 2×0.96 mg SN-38/kg, transient decreases",values did not fall below normal ranges
same,human equivalent dose of MTD (2 doses),"[10]; cynomolgus monkey, in vivo",0.3-0.6 mg/kg SN-38
same,therapeutic efficacy vs control treatments,[11],better therapeutic efficacy than control treatments
same,AST level,[12],> 298 U/L
same,histology at termination,[12],no histologic evidence of tissue damage
same,glucose levels (slightly elevated),[12]; 8 mg/kg,273 to 320 mg/dL
same,mice with slightly elevated glucose levels,[12]; 8 mg/kg,5 of 7
hRS7-SN-38,cumulative human equivalent dose tolerated by monkeys,"[10]; cynomolgus monkey, in vivo",22 mg/m^2
same,dose tolerated by monkeys,"[10]; only minor, reversible toxicities",24 mg SN-38 equivalents/kg
same,reduction in target lesions at first CT assessment,"[7]; person with CRC, starting dose 8 mg/kg",37%
same,SN-38 released daily,[13],50%
same,time within which the conjugate cleared from the serum,[13],≤ 3 days
same,cumulative dose over 1 week without acute toxicity,[14],24 mg/kg SN-38
